Results: patent US8461362B2, “Protein phosphatase 2A-activating agents” (The Ohio State University Research Foundation, priority 2009, dated 2013)
Read-outs that look alike come from different tables or passages of the source.

Experiments:
Assay type in all cases: cell-based
[1] = tested on: AR and its target gene product PSA in LNCaP cells; assay: Western blot of AR and PSA expression in LNCaP cells; conditions: LNCaP cells, 72 h of incubation, 2.5% FBS, Western blot, read-out: concentration reducing expression of AR and PSA by 50%
Experimental: (§1) Cells cultured in T25 flasks were collected by scraping, and cell pellets were washed once with PBS. Cells were lysed in a lysis buffer consisting of 1% SDS, 10 mM EDTA and 50 mM Tris-HCl, pH 8.1, in the presence of a commercial protease inhibitor cocktail from Aldrich-Sigma (2 mM AEBSF, 1 mM EDTA, 130 μM bestatin, 14 μM E-64, 1 μM leupeptin, and 0.3 μM aprotinin). Following a 10-sec sonication using 20% output in a Virsonic 300 sonicator (Virtis, Gardiner N.Y.) to disrupt cellular organelles and genomic DNA, cell lysates were centrifuged at 15,200×g for 15 minutes. One μL of the suspension was used for protein determination using a colorimetric BCA assay (Pierce, Rockford, Ill.), and to the remaining solution was added an equivalent volume of 2×SDS-polyacrylamide gel electrophoresis sample loading buffer (62.5 mM Tris-HCl, pH 6.8, 4% SDS, 5% β-mercaptoethanol, 20% glycerol, and 0.1% bromophenol blue), and boiled for 5 min. Equal amounts of proteins were resolved in 8% SDS-polyacrylamide gels, and transferred to nitrocellulose membranes using a semidry transfer cell. The transblotted membrane was washed twice with Tris-buffered saline containing 0.1% Tween 20 (TBST). After blocking with TBST containing 5% nonfat milk for 40 min, the membrane was incubated with the appropriate primary antibody in TBST-1% nonfat milk at 4° C. overnight. All primary antibodies were diluted 1:1000 in 1% nonfat milk-containing TBST. After treatment with the primary antibody, the membrane was washed three times with TBST for a total of 15 min, followed by incubation with goat anti-rabbit or anti-mouse Immunoglobulin G (IgG)-horseradish peroxidase conjugates (diluted 1:2000) for 1 h at room temperature and four washes with TBST for a total of 1 h. The immunoblots were visualized by enhanced chemiluminescence.

[2] = tested on: Sp1 binding to AR promoter; assay: ChIP assay of Sp1 binding to AR promoter in LNCaP cells; conditions: 72 h
Experimental: Chromatin Immunoprecipitation (ChIP).
After drug treatment, LNCaP cells (2×10^7) in 50 mL of PBS were cross-linked with 1.35 mL of 37% formaldehyde (final concentration 1%) for 15 min at room temperature. Glycine solution (1 mol/L) was added to a final concentration of 125 mmol/L to stop the cross-linking reaction. Cells were harvested and washed twice with 5 mL of PBS, and the cell pellets were lysed in a ChIP lysis buffer containing (50 mM HEPES-KOH at pH 7.5, 140 mM NaCl, 1% Triton X-100, 0.1% sodium deoxycholate, 2 mM AEBSF, 1 mM EDTA, 130 μM bestatin, […], 1 μM leupeptin, and 0.3 μM aprotinin). The suspension was sonicated at 20% output in a Virsonic 300 sonicator with 6 sets of 10-sec pulses (resulting in an average fragment size of 0.8-0.2 kb) and centrifuged for 10 min at 15,000×g at 4° C. One-μL aliquots of the transparent supernatants were taken for determining protein concentrations by BCA assays. Immunoprecipitation was carried out as described above. Aliquots of 1 mg proteins were used for immunoprecipitation using 4 μg of anti-Sp1 antibody followed by protein A/G agarose beads. […]

Sp1 = Sp1 protein expression, stability and ubiquitination in LNCaP cells; conditions: for Sp1 protein half-life relative to DMSO control / Sp1 protein expression: LNCaP cells; for Sp1 ubiquitination: LNCaP cells expressing HA-ubiquitin and Flag-Sp1, 24 h; for Sp1 protein expression: Western blot
Experimental: as §1
LNCaP cells were co-transfected with 5 μg each of Flag-Sp1 and HA-ubiquitin plasmids in an Amaxa Nucleofector using a LNCaP-specific nucleofector kit. These transiently transfected cells were seeded in 6-well plates at 2×10^5 per well. After 48-h incubation, cells were exposed to VES or TS-1 at the indicated concentration for 48 h, and lysed by a radioimmunoprecipitation assay lysis buffer (Santa Cruz Biotechnology) in the presence of a freshly prepared cocktail of phosphatase and protease inhibitors (2 mmol/L AEBSF, 1 mM EDTA, 130 μM bestatin, 14 μM E-64, 1 μM leupeptin, and 0.3 μM aprotinin, 2 mM imidazole, 1 mM sodium fluoride, 1.15 mM sodium molybdate, 1 mM sodium orthovanadate, and 4 mmol/L sodium tartrate dihydrate). After centrifugation at 13,000×g for 15 min, the supernatants were collected, preincubated with protein A/G agarose (Santa Cruz Biotechnology) for 15 min, and centrifuged at 1,000×g for 5 min. Supernatant (20 μL) were stored at 4° C. to be used as input, whereas the remaining supernatant was exposed to 4 μg of anti-Sp1 antibodies at 4° C. for 12 h, followed by protein A/G agarose beads at 4° C. for another 2 h. After brief centrifugation, immunoprecipitates were collected, washed with the aforementioned lysis buffer four times, suspended in 2×SDS sample buffer, and subjected to Western blot analysis with antibodies against HA and Flag.

SMILES: Cc1c(C)c2c(c(C)c1OC(=O)CCC(=O)O)CCC(C)(CCCC(C)CCCC(C)C)O2 (stereo not shown) [TS-1, succinic acid mono-[2-(4,8-dimethyl-nonyl)-2,5,7,8-tetramethylchroman-6-yl]ester]
- IC50 ([1]; Homo sapiens): 5 µM
- Sp1 binding to AR promoter [2]: diminished the Sp1 binding to AR promoter in a dose-dependent manner
- Sp1 protein half-life relative to DMSO control (Sp1): shortened half-life
- Sp1 ubiquitination (Sp1): increased the extent of Sp1 ubiquitination
- Sp1 protein expression (Sp1): reduce Sp1 levels

SMILES: Cc1c(C)c2c(c(C)c1OC(=O)CCC(=O)O)CC[C@@](C)(CCC[C@H](C)CCC[C@H](C)CCCC(C)C)O2 [VES, α-tocopheryl succinate]
- IC50 [1]: ≥ 10 µM
- Sp1 binding to AR promoter [2]: diminished the Sp1 binding to AR promoter in a dose-dependent manner
- Sp1 protein half-life relative to DMSO control (Sp1): shortened half-life
- Sp1 ubiquitination (Sp1): increased the extent of Sp1 ubiquitination
- Sp1 protein expression (Sp1): reduce Sp1 levels
